# Data from article PMC12067741, “Inhibition of SOD1 trimerization is a novel drug target for ALS disease” (Translational Neurodegeneration, 2025).
# Legend:
# [1] = system: WT-SOD1 (Azurite, mCherry2) and MT (G93A)-SOD1 (GFP); assay: Co-inclusion of three colour variants of SOD1 in SK-N-SH cells; assay type: cell-based; details: PRG-A-04 5 μmol/L, 24 h
# Method: Cells with SOD1 aggregation were counted in the fluorescent images. Depending on the intensity of SOD1, cells with SOD1 aggregates were counted in randomly selected fields and quantified as a percentage to the total cells counted. In addition, to calculate the colocalization of the three colors of SOD1, we counted the cells where the three colored images overlapped at a point of high intensity. Cell counting was performed by three independent observers, who were blinded to the transfection or chemical treatment group.
# Fig. 2 PRG-A-04 suppresses SOD1 aggregation through targeting trimeric SOD1. a-b SOD1 trimer destabilizer inhibited MT-SOD1 aggregation. (a) SOD1 (GFP) expression was observed under fluorescence microscope (white arrows; strong intensity of SOD1). Scale bar, 10 μm. EV, empty vector. (b) SOD1 inclusion-positive cells (white arrows; strong intensity of SOD1) were counted and the percentages are shown as mean ± SD. c PRG-A-04 reduced SOD1 oligomerization induced by SOD1 trimer stabilizer (G147P). d-g PRG-A-04 directly bound to the mutant form of SOD1. […] (g) For quantitative analysis, the number of PRG-A-04 molecules per 100 SOD1 molecules was counted. […] (i) Cells with WT and MT-SOD1 co-inclusions were counted and the percentages are shown as mean ± SD. For cell counting, five fluorescence images were randomly selected. […]
# SOD1-G147P = target: T1, SOD1-G147P (Homo sapiens, UniProt P00441, G148P); assay: SOD1 oligomerization induced by trimer stabilizer overexpression; assay type: cell-based
# T1 construct: expressed in transfected cells
# Method: For SDS-PAGE, proteins were extracted from cells with the RIPA buffer (50 mmol/L Tris–Cl, pH 7.5, 150 mmol/L NaCl, 1% NP-40, 0.1% SDS and […]). To detect the oligomer status, the cells were harvested with the TNNI buffer (50 mmol/L Tris–Cl, pH 7.5, 150 mmol/L NaCl, 0.3% NP-40, 100 mmol/L iodoacetamide, protease inhibitor cocktails) and reacted with 0.04% glutaraldehyde (Glu) for 30 min, and then SDS-PAGE was performed using the pan-SOD1 antibody. Samples were separated via SDS-PAGE and transferred to PVDF membrane. Blotted membranes were blocked by 3% skim milk containing TBST buffer for 1 h and incubated with specific antibodies. The following primary antibodies were used: pan-SOD1 (GTX100554) from Genetex (Irvine, CA); misfolded SOD1-specific antibody (B8H10) from MediMabs (Montreal, Canada); Actin (sc-1616), GST (sc-138), and GFP (Green fluorescent protein; sc-8036) antibodies from Santa Cruz Biotechnology (Santa Cruz, CA); TDP-43 antibody (10782–2-AP) from Proteintech (Rosemont, IL); anti-FLAG (Sigma; F3165) from Sigma-Aldrich (St. Louis, MO). HRP-conjugated goat anti-mouse, goat anti-rabbit and mouse anti-goat antibodies (Pierce, Thermo Fisher Scientific, Inc., Rockford, IL) were used as secondary antibodies. The blots were detected using an ECL assay (Advansta) and images were acquired using the […] ImageQuant 800 (Cytiva) system and an X-Ray film detector. […]
# Plasma stability [2] = assay type: in vitro ADME; details: human plasma, after 120 min of incubation
# Plasma stability [3] = assay type: in vitro ADME; details: SD rat plasma, after 120 min of incubation
# T1 sequence (P00441 whole entry G148P): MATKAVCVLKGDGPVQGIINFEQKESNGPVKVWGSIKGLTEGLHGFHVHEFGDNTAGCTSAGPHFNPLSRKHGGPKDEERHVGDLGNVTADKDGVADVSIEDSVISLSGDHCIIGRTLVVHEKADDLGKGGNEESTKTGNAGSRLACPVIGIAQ
compound,measurement,setting,value
COc1cc(C=CCOC2Cc3cc4ccc(=O)oc4cc3OC2(C)C)ccc1[N+](=O)[O-] (stereo not shown) [PRG-A-04],co-inclusion of WT and MT-SOD1,[1],disappeared
same,effect on SOD1 oligomerization caused by trimer-stabilizing mutant,SOD1-G147P,reduced the SOD1 oligomerization
same,stability in plasma,Plasma stability [2],stable
same,stability in plasma,Plasma stability [3],stable
